Results taken from US12410164B2, “Heterocyclic compounds and medical use thereof” (FONDAZIONE TELETHON, priority 2018, dated 2025).

Target: F508del-CFTR (Homo sapiens, UniProt P13569, DEL508-508)
Assay: HS-YFP kinetic fluorescence (iodide quenching rate) assay in CFBE41o− cells
Format: cell-based
Set-up: expressed in transfected cells; host or cells: CFBE41o- cells with expression of F508del-CFTR and HS-YFP (generated as in Sondo et al. 2011)
Settings: for AI (%) additivity index / AI additivity index: compound at 10 μM plus VX-809; for AI additivity index: Table 3; for structure-activity comparison of corrector potency/activity: relative to the analogue
Method in brief: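 CFBE41o- cells co-expressing F508del-CFTR and HS-YFP, treated 24 h with compound (0.1-0.2% DMSO), then stimulated with 20 μM forskolin plus 50 μM genistein. Fluorescence was read for 14 s during NaI injection. Background-subtracted, normalized traces were fitted exponentially to give maximum quenching rate (QR).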

[1] = Table 1, (QRTOT − QRVX)/QRVX, HS-YFP assay

Sequence of F508del-CFTR (P13569 with tags, fused parts or gaps DEL508-508): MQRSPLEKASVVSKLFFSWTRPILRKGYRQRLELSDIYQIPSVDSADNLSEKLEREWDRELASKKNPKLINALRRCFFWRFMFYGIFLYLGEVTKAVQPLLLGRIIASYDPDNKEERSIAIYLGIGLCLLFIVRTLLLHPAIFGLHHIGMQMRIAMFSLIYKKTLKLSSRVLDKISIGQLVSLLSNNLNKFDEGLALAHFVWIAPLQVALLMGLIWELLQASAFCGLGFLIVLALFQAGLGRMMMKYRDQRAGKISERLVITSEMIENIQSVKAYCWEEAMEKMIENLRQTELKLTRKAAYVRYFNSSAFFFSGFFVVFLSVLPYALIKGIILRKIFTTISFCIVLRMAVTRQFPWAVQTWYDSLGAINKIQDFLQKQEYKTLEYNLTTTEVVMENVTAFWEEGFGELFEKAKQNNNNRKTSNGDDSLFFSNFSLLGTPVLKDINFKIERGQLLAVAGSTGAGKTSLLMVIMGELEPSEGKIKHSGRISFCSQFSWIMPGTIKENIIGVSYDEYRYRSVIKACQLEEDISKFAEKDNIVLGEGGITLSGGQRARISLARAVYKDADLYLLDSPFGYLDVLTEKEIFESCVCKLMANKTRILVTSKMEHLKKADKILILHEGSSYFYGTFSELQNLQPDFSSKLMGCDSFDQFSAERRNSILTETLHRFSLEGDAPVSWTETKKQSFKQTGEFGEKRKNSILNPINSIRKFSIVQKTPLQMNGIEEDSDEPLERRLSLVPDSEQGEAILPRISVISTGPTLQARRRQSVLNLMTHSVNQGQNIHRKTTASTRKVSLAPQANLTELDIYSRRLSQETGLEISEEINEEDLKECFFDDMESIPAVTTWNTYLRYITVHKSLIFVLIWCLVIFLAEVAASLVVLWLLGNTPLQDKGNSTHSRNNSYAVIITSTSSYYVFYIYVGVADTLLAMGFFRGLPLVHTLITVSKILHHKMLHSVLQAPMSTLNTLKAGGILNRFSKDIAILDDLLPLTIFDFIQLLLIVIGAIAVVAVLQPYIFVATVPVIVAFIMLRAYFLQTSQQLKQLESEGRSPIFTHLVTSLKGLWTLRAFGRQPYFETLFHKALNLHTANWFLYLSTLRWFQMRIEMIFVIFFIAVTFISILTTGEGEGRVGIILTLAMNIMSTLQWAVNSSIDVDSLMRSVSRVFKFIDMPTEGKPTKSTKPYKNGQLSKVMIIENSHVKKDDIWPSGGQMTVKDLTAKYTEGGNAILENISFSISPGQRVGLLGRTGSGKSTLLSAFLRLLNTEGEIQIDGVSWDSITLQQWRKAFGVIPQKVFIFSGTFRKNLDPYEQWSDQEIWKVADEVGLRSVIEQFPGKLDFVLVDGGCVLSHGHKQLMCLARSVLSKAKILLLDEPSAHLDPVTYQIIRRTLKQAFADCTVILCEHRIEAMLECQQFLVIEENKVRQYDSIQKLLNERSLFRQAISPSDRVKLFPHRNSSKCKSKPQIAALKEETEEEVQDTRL

Structure (SMILES) | AI (%) additivity index [1] | further results
CCOC(=O)c1cc2c(n1Cc1c(C)cc(C)cc1C)-c1[nH]c(=O)c(S(=O)(=O)c3ccccc3)cc1CC2 [PP068, Ethyl 7-(benzenesulfonyl)-8-oxo-1-[(2,4,6-trimethylphenyl)methyl]-4,5,8,9-tetrahydro-1H-pyrrolo[3,2-h]quinoline-2-carboxylate] | 116% | –
CCOC(=O)c1cc2c(n1Cc1ccc(C)cc1)-c1[nH]c(=O)c(S(C)(=O)=O)cc1CC2 [PP024, Ethyl 7-(metansulfonyl)-1-[(4-methylphenyl)methyl]-8-oxo-4,5,8,9-tetrahydro-1H-pyrrolo[3,2-h]quinoline-2-carboxylate] | 11% | –
Cc1ccc(Cn2c(C(=O)NC(C)C)c(Br)c3c2-c2[nH]c(=O)c(S(=O)(=O)c4ccccc4)cc2CC3)cc1 [PP086, 7-(Benzenesulfonyl)-3-bromo-1-[(4-methylphenyl)methyl]-8-oxo-N-(propan-2-yl)-4,5,8,9-tetrahydro-1H-pyrrolo[3,2-h]quinoline-2-carboxamide] | 116% | –
Cc1cccc(Cn2c(C(=O)NC3CC3)cc3c2-c2[nH]c(=O)c(S(=O)(=O)c4ccccc4)cc2CC3)c1 [PP084, 7-(Benzenesulfonyl)-N-cyclopropyl-1-[(3-methylphenyl)methyl]-8-oxo-4,5,8,9-tetrahydro-1H-pyrrolo[3,2-h]quinoline-2-carboxamide] | 10% | –
Cc1cccc(Cn2c(C(=O)NC(C)(C)C)c(Br)c3c2-c2[nH]c(=O)c(S(=O)(=O)c4ccccc4)cc2CC3)c1 [PP101, 7-(Benzenesulfonyl)-3-bromo-N-tert-butyl-1-[(3-methylphenyl)methyl]-8-oxo-4,5,8,9-tetrahydro-1H-pyrrolo[3,2-h]quinoline-2-carboxamide] | 249% | –
CCOC(=O)c1nn(Cc2ccc(C)cc2)c2c1CCc1cc(S(=O)(=O)c3ccccc3)c(=O)[nH]c1-2 [PZ1, Ethyl 7-(benzenesulfonyl)-1-[(4-methylphenyl)methyl]-8-oxo-4,5,8,9-tetrahydro-1H-pyrazolo[4,3-h]quinoline-3-carboxylate] | – | AI (%) additivity index (Table 6, (QRTOT-QRVX)/QRVX): 88%
CCOC(=O)c1ccc2n1CCc1cnc(NC3CCCC3)nc1-2 [QZQ14, Ethyl 2-(cyclopentylamino)-5,6-dihydropyrimido[5,4-g]indolizine-8-carboxylate] | – | AI (%) additivity index (Table 5, (QRTOT-QRVX)/QRVX): 18%
CC(C)NC(=O)c1c(Br)c2c(n1Cc1ccc(Br)cc1)-c1[nH]c(=O)c(S(=O)(=O)c3ccccc3)cc1CC2 [PP097, 7-(Benzenesulfonyl)-3-bromo-1-[(4-bromophenyl)methyl]-8-oxo-N-(propan-2-yl)-4,5,8,9-tetrahydro-1H-pyrrolo[3,2-h]quinoline-2-carboxamide] | 99% | –
CCOC(=O)c1c(Br)c2c(n1Cc1ccc(Br)cc1)-c1nc(NS(=O)(=O)c3ccccc3)ncc1CC2 [SVQ16, Ethyl 2-[(benzenesulfonyl)amino]-7-bromo-9-[(4-bromophenyl)methyl]-6,9-dihydro-5H-pyrrolo[3,2-h]quinazoline-8-carboxylate] | – | AI additivity index ((QRTOT-QRVX)/QRVX): 98%
CCOC(=O)c1cc2c(n1Cc1ccc(C)cc1)-c1nc(NS(=O)(=O)c3ccccc3)ncc1CC2 [SVQ9, Ethyl 2-[(benzenesulfonyl)amino]-9-[(4-methylphenyl)methyl]-6,9-dihydro-5H-pyrrolo[3,2-h]quinazoline-8-carboxylate] | – | AI additivity index ((QRTOT-QRVX)/QRVX): 98%
CCOC(=O)c1c(Br)c2c(n1CC1CC1)-c1[nH]c(=O)c(S(=O)(=O)c3ccccc3)cc1CC2 [PP065, Ethyl 7-(benzenesulfonyl)-3-bromo-1-(cyclopropylmethyl)-8-oxo-4,5,8,9-tetrahydro-1H-pyrrolo[3,2-h]quinoline-2-carboxylate] | 284% | –
CCOC(=O)c1cc2c(n1Cc1cccc(C)c1)-c1nc(NS(=O)(=O)c3ccccc3)ncc1CC2 [SVQ11, Ethyl 2-[(benzenesulfonyl)amino]-9-[(3-methylphenyl)methyl]-6,9-dihydro-5H-pyrrolo[3,2-h]quinazoline-8-carboxylate] | – | AI additivity index ((QRTOT-QRVX)/QRVX): 151%
COC(=O)c1c(Br)c2c(n1Cc1ccc(C)cc1)-c1[nH]c(=O)c(S(=O)(=O)c3ccccc3)cc1CC2 [PP031, Methyl 3-bromo-1-(4-methylbenzyl)-8-oxo-7-(phenylsulfonyl)-4,5,8,9-tetrahydro-1H-pyrrolo[3,2-h]quinoline-2-carboxylate] | 39% | –
CCOC(=O)c1cc2c(n1Cc1ccccc1C)-c1[nH]c(=O)c(S(=O)(=O)c3ccccc3)cc1CC2 [PP015, Ethyl 1-(2-methylbenzyl)-8-oxo-7-(phenylsulfonyl)-4,5,8,9-tetrahydro-1H-pyrrolo[3,2-h]quinoline-2-carboxylate] | 124% | –
CCOC(=O)c1nn(Cc2cccc(C)c2)c2c1CCc1cc(S(=O)(=O)c3ccccc3)c(=O)[nH]c1-2 [PZ3, Ethyl 7-(benzenesulfonyl)-1-[(3-methylphenyl)methyl]-8-oxo-4,5,8,9-tetrahydro-1H-pyrazolo[4,3-h]quinoline-3-carboxylate] | – | AI (%) additivity index (Table 6, (QRTOT-QRVX)/QRVX): 163%
CCOC(=O)c1cc2c(n1Cc1ccc(C(F)(F)F)cc1)-c1[nH]c(=O)c(S(=O)(=O)c3ccccc3)cc1CC2 [PP070, Ethyl 7-(benzenesulfonyl)-8-oxo-1-{[4-(trifluoromethyl)phenyl]methyl}-4,5,8,9-tetrahydro-1H-pyrrolo[3,2-h]quinoline-2-carboxylate] | 101% | –
CCOC(=O)c1nn(Cc2ccc(C)c(C)c2)c2c1CCc1cc(S(=O)(=O)c3ccccc3)c(=O)[nH]c1-2 [PZ7, Ethyl 7-(benzenesulfonyl)-1-[(3,4-dimethylphenyl)methyl]-8-oxo-4,5,8,9-tetrahydro-1H-pyrazolo[4,3-h]quinoline-3-carboxylate] | – | AI (%) additivity index (Table 6, (QRTOT-QRVX)/QRVX): 104%
CC(C)OC(=O)c1c(Br)c2c(n1Cc1ccc(F)cc1)-c1[nH]c(=O)c(S(=O)(=O)c3ccccc3)cc1CC2 [PP108, Propan-2-yl 7-(benzenesulfonyl)-3-bromo-1-[(4-fluorophenyl)methyl]-8-oxo-4,5,8,9-tetrahydro-1H-pyrrolo[3,2-h]quinoline-2-carboxylate] | 257% | –
CC(C)OC(=O)c1c(Br)c2c(n1CC1CC1)-c1[nH]c(=O)c(S(=O)(=O)c3ccccc3)cc1CC2 [PP106, Propan-2-yl 7-(benzenesulfonyl)-3-bromo-1-(cyclopropylmethyl)-8-oxo-4,5,8,9-tetrahydro-1H-pyrrolo[3,2-h]quinoline-2-carboxylate] | 277% | –
Cc1cccc(Cn2c(C(=O)OC(C)C)cc3c2-c2[nH]c(=O)c(S(=O)(=O)c4ccccc4)cc2CC3)c1 [PP103, Propan-2-yl 7-(benzenesulfonyl)-1-[(3-methylphenyl)methyl]-8-oxo-4,5,8,9-tetrahydro-1H-pyrrolo[3,2-h]quinoline-2-carboxylate] | 284% | –
CCOC(=O)c1c(Br)c2c(n1Cc1ccc(C)c(C)c1)-c1[nH]c(=O)c(S(=O)(=O)c3ccccc3)cc1CC2 [PP037, Ethyl 7-(benzenesulfonyl)-3-bromo-1-[(3,4-dimethylphenyl)methyl]-8-oxo-4,5,8,9-tetrahydro-1H-pyrrolo[3,2-h]quinoline-2-carboxylate] | 335% | structure-activity comparison of corrector potency/activity: increase in potency compared to PP008
CCOC(=O)c1cc2c(n1Cc1ccccc1)-c1[nH]c(=O)c(S(=O)(=O)c3ccccc3)cc1CC2 [PP011] | 150% | structure-activity comparison of corrector potency/activity: causes a reduction in activity
CC(C)OC(=O)c1ccc2n1CCCc1cnc(N)nc1-2 [QZQ21, Propan-2-yl 2-amino-6,7-dihydro-5H-pyrimido[4,5-c]pyrrolo[1,2-a]azepine-9-carboxylate] | – | AI (%) additivity index (Table 5, (QRTOT-QRVX)/QRVX): 6%
CCOC(=O)c1c(Br)c2c(n1Cc1ccc(C)c(C)c1)-c1nc(NS(=O)(=O)c3ccccc3)ncc1CC2 [SVQ14, Ethyl 2-[(benzenesulfonyl)amino]-7-bromo-9-[(3,4-dimethylphenyl)methyl]-6,9-dihydro-5H-pyrrolo[3,2-h]quinazoline-8-carboxylate] | – | AI additivity index ((QRTOT-QRVX)/QRVX): 128%
CCOC(=O)c1cc2c(n1Cc1ccc(C)cc1)-c1[nH]c(=O)c(S(=O)(=O)c3ccccc3)cc1CC2 [PP007] | 169% | AI additivity index in the example of FIG. 1 (10 μM, with VX-809 1 μM, 24 h): 74%; F508del-CFTR activity (quenching rate) versus DMSO control (compound alone, 24 h treatment): significant increase in F508del-CFTR activity; F508del-CFTR activity (quenching rate) of combination with VX-809 (compound plus VX-809 1 μM, 24 h): greater than the sum of the single effects; screening outcome (QR above mean plus three SD of DMSO wells) (screen of about 200 heterocyclic molecules): active
Cc1cccc(Cn2c(C(=O)Nc3cc(C(C)(C)C)on3)c(Br)c3c2-c2[nH]c(=O)c(S(=O)(=O)c4ccccc4)cc2CC3)c1 [PP102, 7-(Benzenesulfonyl)-3-bromo-N-(5-tert-butyl-1,2-oxazol-3-yl)-1-[(3-methylphenyl)methyl]-8-oxo-4,5,8,9-tetrahydro-1H-pyrrolo[3,2-h]quinoline-2-carboxamide] | 103% | –
